From article PMC10682951, “Structure-function and rational design of a spider toxin Ssp1a at human voltage-gated sodium channel subtypes” (Frontiers in Pharmacology, 2023)
Bridge positions count the residues as written; N and C are the ends. Peptide text beside a SMILES is read from it.

Key:
Assay type in all cases: cell-based
hNaV1.2 = biological target: T1, hNaV1.2 (Homo sapiens, UniProt Q99250); assay: Automated whole-cell patch-clamp (QPatch 16X), hNaV1.2; settings: for IC50: HEK293 cells expressing hNaV1.2 + β1 subunit, QPatch 16X, holding −80 mV, step to 0 mV, peptide incubated 2 min, 0.1% BSA, mean, SEM and n (2-7); for hNaV1.2-selectivity against hNaV1.3: ratio of potencies hNaV1.3 / hNaV1.2
T1 construct: host or cells: HEK293
T1 sequence (Q07699 19-218): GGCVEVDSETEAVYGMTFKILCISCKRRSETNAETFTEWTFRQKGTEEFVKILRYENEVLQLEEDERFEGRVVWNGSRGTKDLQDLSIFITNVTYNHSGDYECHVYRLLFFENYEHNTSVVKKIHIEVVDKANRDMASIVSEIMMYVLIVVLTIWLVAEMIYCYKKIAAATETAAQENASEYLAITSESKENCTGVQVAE
T1 sequence (Q99250 whole entry): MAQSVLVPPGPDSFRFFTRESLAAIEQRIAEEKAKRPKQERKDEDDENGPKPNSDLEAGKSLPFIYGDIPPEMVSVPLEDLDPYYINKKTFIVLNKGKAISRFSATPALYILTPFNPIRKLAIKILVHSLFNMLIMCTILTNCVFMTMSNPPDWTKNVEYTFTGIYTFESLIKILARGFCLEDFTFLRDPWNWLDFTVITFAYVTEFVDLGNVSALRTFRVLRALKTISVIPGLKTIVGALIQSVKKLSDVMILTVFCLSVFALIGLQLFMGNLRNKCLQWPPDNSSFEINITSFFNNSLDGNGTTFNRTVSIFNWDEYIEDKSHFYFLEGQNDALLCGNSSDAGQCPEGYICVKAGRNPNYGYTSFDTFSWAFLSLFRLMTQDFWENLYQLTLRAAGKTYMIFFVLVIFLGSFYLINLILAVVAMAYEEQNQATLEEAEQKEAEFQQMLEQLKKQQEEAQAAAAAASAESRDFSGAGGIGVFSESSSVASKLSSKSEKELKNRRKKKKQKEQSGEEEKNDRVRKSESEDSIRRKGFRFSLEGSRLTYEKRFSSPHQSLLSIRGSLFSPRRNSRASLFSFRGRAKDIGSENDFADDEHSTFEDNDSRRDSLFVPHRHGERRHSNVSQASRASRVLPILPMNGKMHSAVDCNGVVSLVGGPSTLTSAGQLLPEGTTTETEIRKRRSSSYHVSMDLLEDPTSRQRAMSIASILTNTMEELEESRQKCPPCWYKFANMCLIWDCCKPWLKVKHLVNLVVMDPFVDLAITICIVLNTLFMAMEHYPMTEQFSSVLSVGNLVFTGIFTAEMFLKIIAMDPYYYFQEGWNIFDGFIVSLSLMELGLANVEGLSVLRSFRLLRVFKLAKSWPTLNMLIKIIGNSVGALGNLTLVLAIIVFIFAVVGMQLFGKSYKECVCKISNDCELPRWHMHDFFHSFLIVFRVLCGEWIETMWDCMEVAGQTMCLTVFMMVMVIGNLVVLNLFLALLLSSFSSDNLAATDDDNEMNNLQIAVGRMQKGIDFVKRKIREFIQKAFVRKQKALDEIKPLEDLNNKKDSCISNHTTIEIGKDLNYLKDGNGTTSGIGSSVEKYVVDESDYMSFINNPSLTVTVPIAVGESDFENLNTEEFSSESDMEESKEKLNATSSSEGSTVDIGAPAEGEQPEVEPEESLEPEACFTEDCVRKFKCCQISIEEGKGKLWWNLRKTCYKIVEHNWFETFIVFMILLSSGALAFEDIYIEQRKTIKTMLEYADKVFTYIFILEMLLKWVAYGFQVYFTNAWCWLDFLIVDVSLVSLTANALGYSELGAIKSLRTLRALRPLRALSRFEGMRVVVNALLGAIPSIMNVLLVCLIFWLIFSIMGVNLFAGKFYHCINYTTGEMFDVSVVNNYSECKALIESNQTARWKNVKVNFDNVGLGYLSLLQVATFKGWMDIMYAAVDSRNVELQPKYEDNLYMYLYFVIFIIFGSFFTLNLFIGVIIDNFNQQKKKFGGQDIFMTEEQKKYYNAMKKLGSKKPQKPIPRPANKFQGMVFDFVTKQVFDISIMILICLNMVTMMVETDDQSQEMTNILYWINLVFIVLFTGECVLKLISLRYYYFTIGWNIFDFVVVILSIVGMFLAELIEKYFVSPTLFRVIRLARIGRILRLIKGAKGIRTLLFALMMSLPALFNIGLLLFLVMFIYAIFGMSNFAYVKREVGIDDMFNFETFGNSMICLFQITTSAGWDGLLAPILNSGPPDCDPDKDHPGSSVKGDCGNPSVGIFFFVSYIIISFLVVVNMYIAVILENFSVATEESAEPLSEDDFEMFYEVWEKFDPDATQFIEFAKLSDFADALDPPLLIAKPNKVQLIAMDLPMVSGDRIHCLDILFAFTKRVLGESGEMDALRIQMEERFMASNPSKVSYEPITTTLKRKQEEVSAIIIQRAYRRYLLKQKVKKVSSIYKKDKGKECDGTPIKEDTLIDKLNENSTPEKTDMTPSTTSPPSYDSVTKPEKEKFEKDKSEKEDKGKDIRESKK
Procedure, shortened: (§1)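 HEK293 cells stably expressing the channel (human subtypes with β1 subunit), held at −80 mV; 2 min peptide pre-incubation, then 20 ms steps to 0 mV after a 200 ms −120 mV conditioning pulse. Extracellular pH 7.3 with 20 mM TEA-Cl, CsF-based pipette solution, 0.1% BSA; IC50 from four-parameter Hill fit.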

hNaV1.3 = biological target: T2, hNaV1.3 (Homo sapiens, UniProt Q9NY46); assay: Automated whole-cell patch-clamp (QPatch 16X), hNaV1.3; settings: HEK293 cells expressing hNaV1.3 + β1 subunit; QPatch 16X; holding −80 mV, step to 0 mV; peptide incubated 2 min; 0.1% BSA; mean, SEM and n (3-12)
T2 construct: host or cells: HEK293
Procedure, shortened: as §1

hNaV1.7 = biological target: T3, hNaV1.7 (Homo sapiens, UniProt Q15858); assay: Automated whole-cell patch-clamp (QPatch 16X), hNaV1.7; settings: for IC50: HEK293 cells expressing hNaV1.7 + β1 subunit, QPatch 16X, holding −80 mV, step to 0 mV, peptide incubated 2 min, 0.1% BSA, mean, SEM and n (3-9)
T3 construct: host or cells: HEK293
T3 sequence (Q15858 whole entry): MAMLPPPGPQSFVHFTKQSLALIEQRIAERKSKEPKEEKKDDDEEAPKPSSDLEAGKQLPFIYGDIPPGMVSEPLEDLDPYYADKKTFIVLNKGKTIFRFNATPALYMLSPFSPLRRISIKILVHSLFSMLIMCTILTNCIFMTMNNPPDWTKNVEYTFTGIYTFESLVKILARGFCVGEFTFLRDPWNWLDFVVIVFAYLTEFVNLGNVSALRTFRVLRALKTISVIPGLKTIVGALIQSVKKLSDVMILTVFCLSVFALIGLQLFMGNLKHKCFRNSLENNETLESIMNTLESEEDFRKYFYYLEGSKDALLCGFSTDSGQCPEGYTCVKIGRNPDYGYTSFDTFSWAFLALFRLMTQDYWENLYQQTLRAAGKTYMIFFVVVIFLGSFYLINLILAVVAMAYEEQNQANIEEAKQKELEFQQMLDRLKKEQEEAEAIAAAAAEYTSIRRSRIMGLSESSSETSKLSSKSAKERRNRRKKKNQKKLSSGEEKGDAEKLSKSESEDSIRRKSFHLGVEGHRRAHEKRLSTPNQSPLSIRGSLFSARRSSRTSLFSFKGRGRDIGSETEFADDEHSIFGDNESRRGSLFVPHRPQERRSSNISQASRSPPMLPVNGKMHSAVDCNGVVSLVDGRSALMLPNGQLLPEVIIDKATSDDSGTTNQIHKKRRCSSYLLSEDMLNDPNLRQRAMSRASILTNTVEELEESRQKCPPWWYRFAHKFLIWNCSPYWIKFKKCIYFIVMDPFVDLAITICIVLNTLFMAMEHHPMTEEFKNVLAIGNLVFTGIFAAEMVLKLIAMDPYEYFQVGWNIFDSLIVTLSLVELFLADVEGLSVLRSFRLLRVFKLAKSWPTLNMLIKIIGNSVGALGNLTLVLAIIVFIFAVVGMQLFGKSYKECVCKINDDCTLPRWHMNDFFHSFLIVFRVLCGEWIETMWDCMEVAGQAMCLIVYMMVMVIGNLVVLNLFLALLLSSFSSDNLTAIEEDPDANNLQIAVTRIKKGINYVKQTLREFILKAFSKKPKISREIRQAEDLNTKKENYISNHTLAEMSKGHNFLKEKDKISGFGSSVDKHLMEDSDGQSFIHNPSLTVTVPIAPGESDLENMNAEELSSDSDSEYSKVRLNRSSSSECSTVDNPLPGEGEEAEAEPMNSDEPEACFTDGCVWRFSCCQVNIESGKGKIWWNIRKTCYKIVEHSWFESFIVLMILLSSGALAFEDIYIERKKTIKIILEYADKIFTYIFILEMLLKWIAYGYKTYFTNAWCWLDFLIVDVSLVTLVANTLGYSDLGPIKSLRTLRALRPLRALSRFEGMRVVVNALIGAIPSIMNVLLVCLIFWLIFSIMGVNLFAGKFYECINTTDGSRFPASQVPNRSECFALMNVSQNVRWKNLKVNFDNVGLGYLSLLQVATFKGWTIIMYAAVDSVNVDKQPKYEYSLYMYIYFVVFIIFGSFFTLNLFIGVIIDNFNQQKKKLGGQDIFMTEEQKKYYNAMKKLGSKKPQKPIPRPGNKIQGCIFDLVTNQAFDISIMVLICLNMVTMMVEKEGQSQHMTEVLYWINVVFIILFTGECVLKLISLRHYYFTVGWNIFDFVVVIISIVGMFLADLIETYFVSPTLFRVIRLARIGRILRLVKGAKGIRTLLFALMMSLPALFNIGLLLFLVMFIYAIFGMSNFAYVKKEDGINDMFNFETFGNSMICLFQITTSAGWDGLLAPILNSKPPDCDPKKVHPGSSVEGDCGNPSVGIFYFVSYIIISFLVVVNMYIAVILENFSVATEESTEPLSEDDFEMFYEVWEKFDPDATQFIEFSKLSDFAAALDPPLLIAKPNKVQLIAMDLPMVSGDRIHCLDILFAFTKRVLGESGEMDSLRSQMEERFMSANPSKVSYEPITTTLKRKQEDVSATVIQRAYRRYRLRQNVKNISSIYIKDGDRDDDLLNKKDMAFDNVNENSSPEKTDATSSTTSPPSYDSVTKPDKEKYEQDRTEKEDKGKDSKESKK
T3 sequence (Q07699 19-218, further chain): as the sequence (Q07699 19-218) above
Procedure, shortened: as §1

Structure (SMILES)	IC50 (hNaV1.2)	IC50 (hNaV1.3)	IC50 (hNaV1.7)	hNaV1.2-selectivity against hNaV1.3 (hNaV1.2)	Loss (reduction) in potency vs rSsp1a at hNaV1.2 (hNaV1.2; relative to wild type rSsp1a)	Loss (reduction) in potency vs rSsp1a at hNaV1.7 (hNaV1.7; relative to wild type rSsp1a)
CC(C)C[C@H](NC(=O)[C@H](CC(=O)O)NC(=O)[C@H](Cc1ccc(O)cc1)NC(=O)[C@H](CCCNC(=N)N)NC(=O)[C@@H]1CSSC[C@@H]2NC(=O)[C@H](CCCCN)NC(=O)[C@H](CC(N)=O)NC(=O)[C@H](CC(N)=O)NC(=O)[C@H](CC(N)=O)NC(=O)[C@H](C)NC(=O)[C@H](CC(=O)O)NC(=O)[C@@H]3CSSC[C@H](NC(=O)[C@H](C(C)C)NC(=O)[C@H](Cc4ccc(O)cc4)NC(=O)CNC(=O)[C@H](CCC(=O)O)NC(=O)[C@H](CSSC[C@H](NC(=O)[C@H](CC(=O)O)NC(=O)CN)C(=O)N[C@@H](CC(C)C)C(=O)NCC(=O)N[C@@H](Cc4c[nH]c5ccccc45)C(=O)N[C@@H](Cc4ccccc4)C(=O)N[C@@H](CO)C(=O)NCC(=O)N3)NC2=O)C(=O)N[C@@H](Cc2c[nH]cn2)C(=O)N[C@@H](Cc2c[nH]c3ccccc23)C(=O)N[C@@H](CCCCN)C(=O)N[C@@H](Cc2ccc(O)cc2)C(=O)N2CCC[C@H]2C(=O)N[C@@H](Cc2c[nH]c3ccccc23)C(=O)N1)C(=O)O [P11A]	208 nM	600 nM	120 nM			
CC(C)C[C@H](NC(=O)[C@H](CC(=O)O)NC(=O)[C@H](Cc1ccc(O)cc1)NC(=O)[C@H](CCCNC(=N)N)NC(=O)[C@@H]1CSSC[C@@H]2NC(=O)[C@H](CCCCN)NC(=O)[C@H](CC(N)=O)NC(=O)[C@H](CC(N)=O)NC(=O)[C@H](CC(N)=O)NC(=O)[C@@H]3CCCN3C(=O)[C@H](CC(=O)O)NC(=O)[C@@H]3CSSC[C@H](NC(=O)[C@H](C(C)C)NC(=O)[C@H](Cc4ccc(O)cc4)NC(=O)CNC(=O)[C@H](CCC(=O)O)NC(=O)[C@H](CSSC[C@H](NC(=O)[C@H](CC(=O)O)NC(=O)CN)C(=O)N[C@@H](CC(C)C)C(=O)NCC(=O)N[C@@H](Cc4c[nH]c5ccccc45)C(=O)N[C@@H](Cc4ccccc4)C(=O)N[C@@H](CO)C(=O)NCC(=O)N3)NC2=O)C(=O)N[C@@H](Cc2c[nH]cn2)C(=O)N[C@@H](Cc2c[nH]c3ccccc23)C(=O)N[C@@H](CCCCN)C(=O)N[C@@H](Cc2ccc(O)cc2)C(=O)N[C@@H](C)C(=O)N[C@@H](Cc2c[nH]c3ccccc23)C(=O)N1)C(=O)O [P27A]	270 nM	> 3000 nM	166 nM			
CC(C)C[C@H](NC(=O)[C@H](CC(=O)O)NC(=O)[C@H](Cc1ccc(O)cc1)NC(=O)[C@H](CCCNC(=N)N)NC(=O)[C@@H]1CSSC[C@@H]2NC(=O)[C@H](CCCCN)NC(=O)[C@H](CC(N)=O)NC(=O)[C@H](CC(N)=O)NC(=O)[C@H](CC(N)=O)NC(=O)[C@@H]3CCCN3C(=O)[C@H](CC(=O)O)NC(=O)[C@@H]3CSSC[C@H](NC(=O)[C@H](C(C)C)NC(=O)[C@H](Cc4ccc(O)cc4)NC(=O)CNC(=O)[C@H](CCC(=O)O)NC(=O)[C@H](CSSC[C@H](NC(=O)[C@H](CC(=O)O)NC(=O)CN)C(=O)N[C@@H](CC(C)C)C(=O)NCC(=O)N[C@@H](Cc4c[nH]c5ccccc45)C(=O)N[C@@H](Cc4ccccc4)C(=O)N[C@@H](CO)C(=O)NCC(=O)N3)NC2=O)C(=O)N[C@@H](Cc2c[nH]cn2)C(=O)N[C@@H](Cc2c[nH]c3ccccc23)C(=O)N[C@@H](CCCCN)C(=O)N[C@@H](Cc2ccc(O)cc2)C(=O)N[C@@H](CCCCN)C(=O)N[C@@H](Cc2c[nH]c3ccccc23)C(=O)N1)C(=O)O [P27K]	124 nM	1520 nM	108 nM	> 10 fold		
CC(C)C[C@H](NC(=O)[C@H](CC(=O)O)NC(=O)[C@H](Cc1ccc(O)cc1)NC(=O)[C@H](CCCNC(=N)N)NC(=O)[C@@H]1CSSC[C@@H]2NC(=O)[C@H](CCCCN)NC(=O)[C@H](CC(N)=O)NC(=O)[C@H](CC(N)=O)NC(=O)[C@H](CC(N)=O)NC(=O)[C@@H]3CCCN3C(=O)[C@H](CC(=O)O)NC(=O)[C@@H]3CSSC[C@H](NC(=O)[C@H](C(C)C)NC(=O)[C@H](Cc4ccc(O)cc4)NC(=O)CNC(=O)[C@H](CCC(=O)O)NC(=O)[C@H](CSSC[C@H](NC(=O)[C@H](CC(=O)O)NC(=O)CN)C(=O)N[C@@H](CC(C)C)C(=O)NCC(=O)N[C@@H](Cc4c[nH]c5ccccc45)C(=O)N[C@@H](Cc4ccccc4)C(=O)N[C@@H](CO)C(=O)NCC(=O)N3)NC2=O)C(=O)N[C@@H](Cc2c[nH]cn2)C(=O)N[C@@H](Cc2c[nH]c3ccccc23)C(=O)N[C@@H](CCCCN)C(=O)N[C@@H](Cc2ccc(O)cc2)C(=O)N[C@@H](CCCNC(=N)N)C(=O)N[C@@H](Cc2c[nH]c3ccccc23)C(=O)N1)C(=O)O [P27R]	77 nM	> 1000 nM	141 nM	> 10 fold		
CC(C)C[C@H](NC(=O)[C@H](CC(=O)O)NC(=O)[C@H](Cc1ccc(O)cc1)NC(=O)[C@H](C)NC(=O)[C@@H]1CSSC[C@@H]2NC(=O)[C@H](CCCCN)NC(=O)[C@H](CC(N)=O)NC(=O)[C@H](CC(N)=O)NC(=O)[C@H](CC(N)=O)NC(=O)[C@@H]3CCCN3C(=O)[C@H](CC(=O)O)NC(=O)[C@@H]3CSSC[C@H](NC(=O)[C@H](C(C)C)NC(=O)[C@H](Cc4ccc(O)cc4)NC(=O)CNC(=O)[C@H](CCC(=O)O)NC(=O)[C@H](CSSC[C@H](NC(=O)[C@H](CC(=O)O)NC(=O)CN)C(=O)N[C@@H](CC(C)C)C(=O)NCC(=O)N[C@@H](Cc4c[nH]c5ccccc45)C(=O)N[C@@H](Cc4ccccc4)C(=O)N[C@@H](CO)C(=O)NCC(=O)N3)NC2=O)C(=O)N[C@@H](Cc2c[nH]cn2)C(=O)N[C@@H](Cc2c[nH]c3ccccc23)C(=O)N[C@@H](CCCCN)C(=O)N[C@@H](Cc2ccc(O)cc2)C(=O)N2CCC[C@H]2C(=O)N[C@@H](Cc2c[nH]c3ccccc23)C(=O)N1)C(=O)O [R30A] (H-GDCLGWFSGCDPNNNKCCEGYVCHWKYPWCAYDL-OH; disulfide 3-18, 10-23, 17-30 (inferred); N-terminus and C-terminus assumed)	> 1000 nM	> 1000 nM	> 1000 nM		≥ 10 fold	≥ 10 fold
CC(C)C[C@H](NC(=O)[C@H](CC(=O)O)NC(=O)[C@H](Cc1ccc(O)cc1)NC(=O)[C@H](CCCNC(=N)N)NC(=O)[C@@H]1CSSC[C@@H]2NC(=O)[C@H](CCCCN)NC(=O)[C@H](CC(N)=O)NC(=O)[C@H](CC(N)=O)NC(=O)[C@H](CC(N)=O)NC(=O)[C@@H]3CCCN3C(=O)[C@H](CC(=O)O)NC(=O)[C@@H]3CSSC[C@H](NC(=O)[C@H](C(C)C)NC(=O)[C@H](Cc4ccc(O)cc4)NC(=O)CNC(=O)[C@H](CCC(=O)O)NC(=O)[C@H](CSSC[C@H](NC(=O)[C@H](CC(=O)O)NC(=O)CN)C(=O)N[C@@H](CC(C)C)C(=O)NCC(=O)N[C@@H](Cc4c[nH]c5ccccc45)C(=O)N[C@@H](Cc4ccccc4)C(=O)N[C@@H](CCCCN)C(=O)NCC(=O)N3)NC2=O)C(=O)N[C@@H](Cc2c[nH]cn2)C(=O)N[C@@H](Cc2c[nH]c3ccccc23)C(=O)N[C@@H](CCCCN)C(=O)N[C@@H](Cc2ccc(O)cc2)C(=O)N2CCC[C@H]2C(=O)N[C@@H](Cc2ccccc2)C(=O)N1)C(=O)O [S7K/W28F] (H-GDCLGWFKGCDPNNNKCCEGYVCHWKYPFCRYDL-OH; disulfide 3-18, 10-23, 17-30)	> 3000 nM	> 3000 nM	1470 nM			
